Measurements: patent US8269026B2, “Lupane derivatives useful for treating HIV” (priority 2008, dated 2012)
Read-outs that look alike come from different tables or passages of the source.

Test system: HIV-1 (HIVIIIB) replication in MT2 cell line
Experiment: HIV-1 replication in MT2 cell line with and without 30% human serum (viral RT activity in supernatant)
Assay type: cell-based
Conditions: Human immunodeficiency virus 1, MT2 cells, average IC50 if tested more than once
Method: HIV-1 Replication in MT2 cell line with and without 30% human serum: The cells are infected at a Multiciplicity of Infection (MOI) of 0.5 for 3 h and then washed twice with complete media to remove residual virus. Cells are then resuspended at 0.5×10^6/ml in complete medium (RPMI, 10% FBS, 1% sodium pyruvate), and seeded into 96-well plates (6.25×10^4/well). The cells are cultured in the presence or absence of various concentrations of test compounds in serial dilutions for 3 days at 37° C. The test compounds are serially diluted in complete medium supplemented or not with 30% human serum. After 3 days, 100 μL of cultured medium with cells are replaced with 120 μL of freshly diluted test compounds in complete medium containing or not 30% Human serum. The level of HIV-1 replication is determined at days 5 after infection by the presence of viral RT activity in harvested supernatant fluid. The IC50 and IC90 values for the virus replication are determined by using GRAPHPAD PRISM software.
The IC50 of the compounds tested in accordance with the HIV replication activity assay MT2 (HIVIIIB) are represented in Table 1.

[1] = with 30% human serum, read-out: MT2 (HIVIIIB) with HS 30% IC50 range
[2] = without human serum, read-out: MT2 (HIVIIIB) IC50 range

Compound	IC50 [1]	IC50 [2]
CC(C)C1=C2[C@H]3CC[C@@H]4[C@@]5(C)CC[C@H](OC(=O)CC(C)(C)C(=O)O)C(C)(C)[C@@H]5CC[C@@]4(C)[C@]3(C)CC[C@@]2(NC(=O)CCN2CCCC2)CC1=O [19-37, 3β-O-(3′,3′-Dimethylsuccinyl)-17β-(3-pyrrolidin-1-yl-propionamido)-21-oxolup-18-ene]	< 199 nM	–
CC(C)C1=C2C3CCC4[C@@]5(C)CC[C@H](OC(=O)CC(C)(C)C(=O)O)C(C)(C)C5CC[C@@]4(C)[C@]3(C)CC[C@@]2(NC(=O)NCc2ccsc2)CC1=O (stereo partly drawn) [17-75, 3β-O-(3′,3′-Dimethylsuccinyl)-17β-[N′-(thiophen-3-ylmethyl)-ureido]-21-oxolup-18-ene]	< 199 nM	–
CC(C)C1=C2C3CCC4[C@@]5(C)CC[C@H](OC(=O)CC(C)(C)C(=O)O)C(C)(C)C5CC[C@@]4(C)[C@]3(C)CC[C@@]2(NC(=O)C2CCCCC2)CC1=O (stereo partly drawn) [19-33, 3β-O-(3′,3′-Dimethylsuccinyl)-17β-cyclohexylamido-21-oxolup-18-ene]	< 199 nM	< 199 nM
CC(C)C1=C2C3CCC4[C@@]5(C)CC[C@H](OC(=O)CC(C)(C)C(=O)O)C(C)(C)C5CC[C@@]4(C)[C@]3(C)CC[C@@]2(NC(=O)O[C@@H]2CCN(C)C2)CC1=O (stereo partly drawn) [20-13, 3β-O-(3′,3′-Dimethylsuccinyl)-17β-((R)-1-methylpyrrolidine-3-oxycarbonylamino)-21-oxolup-18-ene]	< 199 nM	–
CC(C)C1=C2[C@H]3CC[C@@H]4[C@@]5(C)CC[C@H](OC(=O)CC(C)(C)C(=O)O)C(C)(C)[C@@H]5CC[C@@]4(C)[C@]3(C)CC[C@@]2(NC(=O)c2ccn(C)n2)CC1=O [19-17, 3β-O-(3′,3′-Dimethylsuccinyl)-17β-(1-methyl-1H-pyrazole-3-amido)-21-oxolup-18-ene]	< 199 nM	–
CC(C)C1=C2C3CCC4[C@@]5(C)CC[C@H](OC(=O)CC(C)(C)C(=O)O)C(C)(C)C5CC[C@@]4(C)[C@]3(C)CC[C@@]2(NC(=O)c2ccncn2)CC1=O (stereo partly drawn) [19-25, 3β-O-(3′,3′-Dimethylsuccinyl)-17β-(pyrimidine-4-amido)-21-oxolup-18-ene]	< 199 nM	–
CC(C)C1=C2C3CCC4[C@@]5(C)CC[C@H](OC(=O)CC(C)(C)C(=O)O)C(C)(C)C5CC[C@@]4(C)[C@]3(C)CC[C@@]2(NC(=O)OCC2CCCCC2)CC1=O (stereo partly drawn) [20-7, 3β-O-(3′,3′-Dimethylsuccinyl)-17β-cyclohexylmethoxycarbonylamino-21-oxolup-18-ene]	< 199 nM	< 199 nM
CC(C)C1=C2C3CCC4[C@@]5(C)CC[C@H](OC(=O)CC(C)(C)C(=O)O)C(C)(C)C5CC[C@@]4(C)[C@]3(C)CC[C@@]2(NC(=O)c2cncnc2)CC1=O (stereo partly drawn) [19-23, 3β-O-(3′,3′-Dimethylsuccinyl)-17β-(pyrimidine-5-amido)-21-oxolup-18-ene]	< 199 nM	< 199 nM
CC(C)C1=C2C3CCC4[C@@]5(C)CC[C@H](OC(=O)CC(C)(C)C(=O)O)C(C)(C)C5CC[C@@]4(C)[C@]3(C)CC[C@@]2(NC(=O)OCCC2CC2)CC1=O (stereo partly drawn) [20-22, 3β-O-(3′,3′-Dimethylsuccinyl)-17β-(2-cyclopropyl-1-ethoxycarbonylamino)-21-oxolup-18-ene]	< 199 nM	–
Cc1nc(C(=O)N[C@@]23CC[C@]4(C)C(CCC5[C@@]6(C)CC[C@H](OC(=O)CC(C)(C)C(=O)O)C(C)(C)C6CC[C@]54C)C2=C(C(C)C)C(=O)C3)co1 (stereo partly drawn) [19-76, 3β-O-(3′,3′-Dimethylsuccinyl)-17β-(2-methyl-1,3-oxazole-4-amido)-21-oxolup-18-ene]	< 199 nM	–
COC(=O)N[C@@]12CC[C@]3(C)[C@H](CC[C@@H]4[C@@]5(C)CC[C@H](OC(=O)CC(C)(C)C(=O)O)C(C)(C)[C@@H]5CC[C@]43C)C1=C(C(C)C)C(=O)C2 [20-1, 3β-O-(3′,3′-Dimethylsuccinyl)-17β-nnethoxycarbonylamino-21-oxolup-18-ene]	< 199 nM	< 199 nM
CC(C)C1=C2C3CCC4[C@@]5(C)CC[C@H](OC(=O)CC(C)(C)C(=O)O)C(C)(C)C5CC[C@@]4(C)[C@]3(C)CC[C@@]2(NC(=O)NC2CCCCC2)CC1=O (stereo partly drawn) [17-7, 3β-O-(3′,3′-Dimethylsuccinyl)-17β-[N′-(cyclohexyl)ureido]-21-oxolup-18-ene]	< 199 nM	–
CC(C)C1=C2C3CCC4[C@@]5(C)CC[C@H](OC(=O)CC(C)(C)C(=O)O)C(C)(C)C5CC[C@@]4(C)[C@]3(C)CC[C@@]2(NC(=O)OCCN2CCCC2)CC1=O (stereo partly drawn) [20-23, 3β-O-(3′,3′-Dimethylsuccinyl)-17β-(2-pyrrolidin-1-ethoxycarbonylamino)-21-oxolup-18-ene]	< 199 nM	–
CN[C@@]12CC[C@]3(C)[C@H](CC[C@@H]4[C@@]5(C)CC[C@H](OC(=O)CC(C)(C)C(=O)O)C(C)(C)[C@@H]5CC[C@]43C)C1=C(C(C)C)C(=O)C2 [16-2, 3β-O-(3′,3′-Dimethylsuccinyl)-17β-(methylamino)-21-oxolup-18-ene]	< 199 nM	–
CC(C)C1=C2C3CCC4[C@@]5(C)CC[C@H](OC(=O)CC(C)(C)C(=O)O)C(C)(C)C5CC[C@@]4(C)[C@]3(C)CC[C@@]2(NC(=O)OCC2CCN(C)C2)CC1=O (stereo partly drawn) [20-21, 3β-O-(3′,3′-Dimethylsuccinyl)-17β-(1-methylpyrrolidine-3-methoxycarbonylamino)-21-oxolup-18-ene]	< 199 nM	–
CC(C)C1=C2[C@H]3CC[C@@H]4[C@@]5(C)CC[C@H](OC(=O)CC(C)(C)C(=O)O)C(C)(C)[C@@H]5CC[C@@]4(C)[C@]3(C)CC[C@@]2(NC(=O)c2cn(C)cn2)CC1=O [19-19, 3β-O-(3′,3′-Dimethylsuccinyl)-17β-(1-methyl-1H-imidazole-4-amido)-21-oxolup-18-ene]	< 199 nM	–
CC(C)C1=C2[C@H]3CC[C@@H]4[C@@]5(C)CC[C@H](OC(=O)CC(C)(C)C(=O)O)C(C)(C)[C@@H]5CC[C@@]4(C)[C@]3(C)CC[C@@]2(NS(C)(=O)=O)CC1=O [18-1, 3β-O-(3′,3′-Dimethylsuccinyl)-17β-methylsulfonylamino-21-oxolup-18-ene]	< 199 nM	< 199 nM
CC(C)C1=C2C3CCC4[C@@]5(C)CC[C@H](OC(=O)CC(C)(C)C(=O)O)C(C)(C)C5CC[C@@]4(C)[C@]3(C)CC[C@@]2(NC(=O)OC2CCCCC2)CC1=O (stereo partly drawn) [20-5, 3β-O-(3′,3′-Dimethylsuccinyl)-17β-cyclohexyloxycarbonylamino-21-oxolup-18-ene]	< 199 nM	–
CC(C)C1=C2C3CCC4[C@@]5(C)CC[C@H](OC(=O)CC(C)(C)C(=O)O)C(C)(C)C5CC[C@@]4(C)[C@]3(C)CC[C@@]2(NC(=O)[C@@H]2CCCN2C(=O)OC(C)(C)C)CC1=O (some centres unmarked) [19-57]	< 199 nM	–
CC(C)C1=C2C3CCC4[C@@]5(C)CC[C@H](OC(=O)CC(C)(C)C(=O)O)C(C)(C)C5CC[C@@]4(C)[C@]3(C)CC[C@@]2(NC(=O)NCc2ccccn2)CC1=O (stereo partly drawn) [17-27, 3β-O-(3′,3′-Dimethylsuccinyl)-17β-[N′-(pyridin-2-ylmethyl)ureido]-21-oxolup-18-ene]	< 199 nM	–
CC(C)C1=C2C3CCC4[C@@]5(C)CC[C@H](OC(=O)CC(C)(C)C(=O)O)C(C)(C)C5CC[C@@]4(C)[C@]3(C)CC[C@@]2(NC(=O)NC2CC2)CC1=O (stereo partly drawn) [17-22, 3β-O-(3′,3′-Dimethylsuccinyl)-17β-(N′-cyclopropyl-ureido)-21-oxolup-18-ene]	< 199 nM	–
CC(C)C1=C2[C@H]3CC[C@@H]4[C@@]5(C)CC[C@H](OC(=O)CC(C)(C)C(=O)O)C(C)(C)[C@@H]5CC[C@@]4(C)[C@]3(C)CC[C@@]2(NC(=O)NC2CNC2)CC1=O [17-35]	200 to 999 nM	–
CC(C)C1=C2[C@H]3CC[C@@H]4[C@@]5(C)CC[C@H](OC(=O)CC(C)(C)C(=O)O)C(C)(C)[C@@H]5CC[C@@]4(C)[C@]3(C)CC[C@@]2(NC(=O)N2CCOCC2)CC1=O [17-13, 3β-O-(3′,3′-Dimethylsuccinyl)-17β-[(morpholine-4-carbonyl)-amino]-21-oxolup-18-ene]	< 199 nM	–
CC(C)C1=C2[C@H]3CC[C@@H]4[C@@]5(C)CC[C@H](OC(=O)CC(C)(C)C(=O)O)C(C)(C)[C@@H]5CC[C@@]4(C)[C@]3(C)CC[C@@]2(NC(=O)Nc2ccncn2)CC1=O [17-46, 3β-O-(3′,3′-Dimethylsuccinyl)-17β-(N′-pyrimidin-4-yl-ureido)-21-oxolup-18-ene]	< 199 nM	–
CC(C)C1=C2C3CCC4[C@@]5(C)CC[C@H](OC(=O)CC(C)(C)C(=O)O)C(C)(C)C5CC[C@@]4(C)[C@]3(C)CC[C@@]2(NC(=O)N(C)C)CC1=O (stereo partly drawn) [17-48, 3β-O-(3′,3′-Dimethylsuccinyl)-17β-[N′,N′-dimethyl-ureido]-21-oxolup-18-ene]	< 199 nM	–
CC(C)C1=C2C3CCC4[C@@]5(C)CC[C@H](OC(=O)CC(C)(C)C(=O)O)C(C)(C)C5CC[C@@]4(C)[C@]3(C)CC[C@@]2(NC(=O)NC(C)(C)C(F)(F)F)CC1=O (stereo partly drawn) [17-56, 3β-O-(3′,3′-Dimethylsuccinyl)-17β-[N′-(2,2,2-trifluoro-1,1-dimethyl-ethyl)ureido]-21-oxolup-18-ene]	< 199 nM	–
CC(C)C1=C2C3CCC4[C@@]5(C)CC[C@H](OC(=O)CC(C)(C)C(=O)O)C(C)(C)C5CC[C@@]4(C)[C@]3(C)CC[C@@]2(NC(=O)c2ncccn2)CC1=O (stereo partly drawn) [19-22, 3β-O-(3′,3′-Dimethylsuccinyl)-17β-(pyrimidine-2-amido)-21-oxolup-18-ene]	< 199 nM	–
